How the values were obtained:
[1] = test system: HepG-2 human hepatocellular carcinoma cells; assay: MTT assay, proliferation of HepG-2 cells; assay type: cell-based; settings: Homo sapiens, HepG2, 72 h incubation, mean of three independent experiments
Experimental: (§1) HepG-2 human hepatocellular carcinoma cells and L-O2 human normal liver cells were maintained in DMEM culture medium supplemented with 10% FBS at 37 °C under a humidified atmosphere with 5% CO2.
(§2) HepG-2 and L-O2 cells in logarithmic growth phase were seeded into a 96-well plate at 5 × 10^3/well/200 µL. After 12 h, compounds at different concentrations were added and incubated for 72 h at 37 °C, 5% CO2. Then, 20 µL MTT (5 mg/mL) was added into each well and incubated for 4 h. The supernatant was discarded, and the precipitate was dissolved with DMSO. The absorbance of the optical density (OD) at 570 nm was detected using a microplate reader and the IC50 was calculated with GraphPad Prism 5.

[2] = test system: L-O2 human normal liver cells; assay: MTT assay, toxicity against L-O2 normal cells; assay type: cell-based; settings: Homo sapiens, 72 h incubation, mean of three independent experiments
Experimental: as §1, §2

## COc1cccc2c1C(=O)c1c(O)c3c(c(O)c1C2=O)C[C@@](O)(C(=O)CO)C[C@@H]3O[C@H]1C[C@H](N)[C@H](O)[C@H](C)O1 [ADR, adriamycin, reference compound]
[1]
  IC50: 300 ± 50 nM
[2]
  IC50: 41 ± 13 nM

## CCC(=O)O[C@@H]1C[C@@]2(C)C3CC=C4C(C[C@H](O)C(=O)C4(C)C)[C@]3(C)C(=O)C[C@]2(C)C1[C@@](C)(O)C(=O)/C=C/C(C)(C)OC(C)=O (stereo partly drawn) [Compound 3a, (2S,9R,13R,14S,16R)-17-((R,E)-6-Acetoxy-2-hydroxy-6-methyl-3-oxohept-4-en-2-yl)-2-hydroxy-4,4,9,13,14-pentamethyl-3,11-dioxo-2,3,4,7,8,9,10,11,12,13,14,15,16,17-tetradecahydro-1H-cyclopenta[a]phenanthren-16-yl propionate]
[1]
  IC50: 1010 ± 40 nM
[2]
  IC50: 1020 ± 580 nM

## CC(=O)OC(C)(C)/C=C/C(=O)[C@](C)(O)C1[C@H](OC(=O)C2CCC2)C[C@@]2(C)C3CC=C4C(CC(O)C(=O)C4(C)C)[C@]3(C)C(=O)C[C@]12C (stereo partly drawn) [Compound 3b, (9R,13R,14S,16R)-17-((R,E)-6-Acetoxy-2-hydroxy-6-methyl-3-oxohept-4-en-2-yl)-2-hydroxy-4,4,9,13,14-pentamethyl-3,11-dioxo-2,3,4,7,8,9,10,11,12,13,14,15,16,17-tetradecahydro-1H-cyclopenta[a]phenanthren-16-yl cyclobutanecarboxylate]
[1]
  IC50: 540 ± 40 nM
[2]
  IC50: 520 ± 80 nM

## CC(=O)OC(C)(C)/C=C/C(=O)[C@](C)(O)C1[C@H](OC(=O)C2CCCC2)C[C@@]2(C)C3CC=C4C(C[C@H](O)C(=O)C4(C)C)[C@]3(C)C(=O)C[C@]12C (stereo partly drawn) [Compound 3c, (2S,9R,13R,14S,16R)-17-((R,E)-6-Acetoxy-2-hydroxy-6-methyl-3-oxohept-4-en-2-yl)-2-hydroxy-4,4,9,13,14-pentamethyl-3,11-dioxo-2,3,4,7,8,9,10,11,12,13,14,15,16,17-tetradecahydro-1H-cyclopenta[a]phenanthren-16-yl cyclopentanecarboxylate]
[1]
  IC50: 2450 ± 1750 nM
[2]
  IC50: 2370 ± 90 nM

## CC(=O)OC(C)(C)/C=C/C(=O)[C@](C)(O)C1[C@H](OC(=O)CCCCNC(=O)OC(C)(C)C)C[C@@]2(C)C3CC=C4C(C[C@H](O)C(=O)C4(C)C)[C@]3(C)C(=O)C[C@]12C (stereo partly drawn) [Compound 3d, (2S,9R,13R,14S,16R)-17-((R,E)-6-Acetoxy-2-hydroxy-6-methyl-3-oxohept-4-en-2-yl)-2-hydroxy-4,4,9,13,14-pentamethyl-3,11-dioxo-2,3,4,7,8,9,10,11,12,13,14,15,16,17-tetradecahydro-1H-cyclopenta[a]phenanthren-16-yl 5-((tert-butoxycarbonyl)amino)pentanoate]
[1]
  IC50: 4890 ± 920 nM
[2]
  IC50: 8010 ± 470 nM

## CC(=O)OC(C)(C)/C=C/C(=O)[C@](C)(O)C1[C@H](OC(=O)CCCCN(C)C(=O)OC(C)(C)C)C[C@@]2(C)C3CC=C4C(C[C@H](O)C(=O)C4(C)C)[C@]3(C)C(=O)C[C@]12C (stereo partly drawn) [Compound 3e, (2S,9R,13R,14S,16R)-17-((R,E)-6-Acetoxy-2-hydroxy-6-methyl-3-oxohept-4-en-2-yl)-2-hydroxy-4,4,9,13,14-pentamethyl-3,11-dioxo-2,3,4,7,8,9,10,11,12,13,14,15,16,17-tetradecahydro-1H-cyclopenta[a]phenanthren-16-yl 5-((tert-butoxycarbonyl)(methyl)amino)pentanoate]
[1]
  IC50: 9280 ± 370 nM
[2]
  IC50: 5500 ± 2480 nM

## CC(=O)OC(C)(C)/C=C/C(=O)[C@](C)(O)C1[C@H](OC(=O)CCCN(C)C(=O)OC(C)(C)C)C[C@@]2(C)C3CC=C4C(C[C@H](O)C(=O)C4(C)C)[C@]3(C)C(=O)C[C@]12C (stereo partly drawn) [Compound 3f, (2S,9R,13R,14S,16R)-17-((R,E)-6-Acetoxy-2-hydroxy-6-methyl-3-oxohept-4-en-2-yl)-2-hydroxy-4,4,9,13,14-pentamethyl-3,11-dioxo-2,3,4,7,8,9,10,11,12,13,14,15,16,17-tetradecahydro-1H-cyclopenta[a]phenanthren-16-yl 4-((tert-butoxycarbonyl)(methyl)amino)butanoate]
[1]
  IC50: 930 ± 60 nM
[2]
  IC50: 410 ± 110 nM

## CC(=O)OC(C)(C)/C=C/C(=O)[C@](C)(O)C1[C@H](OC(=O)CCc2ccccc2NC(=O)OC(C)(C)C)C[C@@]2(C)C3CC=C4C(C[C@H](O)C(=O)C4(C)C)[C@]3(C)C(=O)C[C@]12C (stereo partly drawn) [Compound 3g, (2S,9R,13R,14S,16R)-17-((R,E)-6-Acetoxy-2-hydroxy-6-methyl-3-oxohept-4-en-2-yl)-2-hydroxy-4,4,9,13,14-pentamethyl-3,11-dioxo-2,3,4,7,8,9,10,11,12,13,14,15,16,17-tetradecahydro-1H-cyclopenta[a]phenanthren-16-yl 3-(2-((tert-butoxycarbonyl)amino)phenyl)propanoate]
[1]
  IC50: 220 ± 110 nM
[2]
  IC50: 42 ± 1 nM

## CC(=O)OC(C)(C)/C=C/C(=O)[C@](C)(O)C1[C@H](OC(=O)c2ccc(C)cc2)C[C@@]2(C)C3CC=C4C(C[C@H](O)C(=O)C4(C)C)[C@]3(C)C(=O)C[C@]12C (stereo partly drawn) [Compound 3h, (2S,9R,13R,14S,16R)-17-((R,E)-6-Acetoxy-2-hydroxy-6-methyl-3-oxohept-4-en-2-yl)-2-hydroxy-4,4,9,13,14-pentamethyl-3,11-dioxo-2,3,4,7,8,9,10,11,12,13,14,15,16,17-tetradecahydro-1H-cyclopenta[a]phenanthren-16-yl 4-methylbenzoate]
[1]
  IC50: 9620 ± 1340 nM
[2]
  IC50: 6900 ± 1370 nM

## CC(=O)OC(C)(C)/C=C/C(=O)[C@](C)(O)C1[C@H](OC(=O)c2ccc(F)cc2)C[C@@]2(C)C3CC=C4C(C[C@H](O)C(=O)C4(C)C)[C@]3(C)C(=O)C[C@]12C (stereo partly drawn) [Compound 3i, (2S,9R,13R,14S,16R)-17-((R,E)-6-Acetoxy-2-hydroxy-6-methyl-3-oxohept-4-en-2-yl)-2-hydroxy-4,4,9,13,14-pentamethyl-3,11-dioxo-2,3,4,7,8,9,10,11,12,13,14,15,16,17-tetradecahydro-1H-cyclopenta[a]phenanthren-16-yl 4-fluorobenzoate]
[1]
  IC50: 7420 ± 400 nM
[2]
  IC50: 4420 ± 970 nM

## CC(=O)OC(C)(C)/C=C/C(=O)[C@](C)(O)C1[C@H](OC(=O)c2ccc(Cl)cc2)C[C@@]2(C)C3CC=C4C(C[C@H](O)C(=O)C4(C)C)[C@]3(C)C(=O)C[C@]12C (stereo partly drawn) [Compound 3j, (2S,9R,13R,14S,16R)-17-((R,E)-6-Acetoxy-2-hydroxy-6-methyl-3-oxohept-4-en-2-yl)-2-hydroxy-4,4,9,13,14-pentamethyl-3,11-dioxo-2,3,4,7,8,9,10,11,12,13,14,15,16,17-tetradecahydro-1H-cyclopenta[a]phenanthren-16-yl 4-chlorobenzoate]
[1]
  IC50: 4670 ± 280 nM
[2]
  IC50: 3570 ± 2580 nM

## CC(=O)OC(C)(C)/C=C/C(=O)[C@](C)(O)C1[C@H](OC(=O)c2ccc(Br)cc2)C[C@@]2(C)C3CC=C4C(C[C@H](O)C(=O)C4(C)C)[C@]3(C)C(=O)C[C@]12C (stereo partly drawn) [Compound 3k, (2S,9R,13R,14S,16R)-17-((R,E)-6-Acetoxy-2-hydroxy-6-methyl-3-oxohept-4-en-2-yl)-2-hydroxy-4,4,9,13,14-pentamethyl-3,11-dioxo-2,3,4,7,8,9,10,11,12,13,14,15,16,17-tetradecahydro-1H-cyclopenta[a]phenanthren-16-yl 4-bromobenzoate]
[1]
  IC50: 2990 ± 2060 nM
[2]
  IC50: 1930 ± 320 nM

## COc1ccc(C(=O)O[C@@H]2C[C@@]3(C)C4CC=C5C(C[C@H](O)C(=O)C5(C)C)[C@]4(C)C(=O)C[C@]3(C)C2[C@@](C)(O)C(=O)/C=C/C(C)(C)OC(C)=O)cc1 (stereo partly drawn) [Compound 3l, (2S,9R,13R,14S,16R)-17-((R,E)-6-Acetoxy-2-hydroxy-6-methyl-3-oxohept-4-en-2-yl)-2-hydroxy-4,4,9,13,14-pentamethyl-3,11-dioxo-2,3,4,7,8,9,10,11,12,13,14,15,16,17-tetradecahydro-1H-cyclopenta[a]phenanthren-16-yl 4-methoxybenzoate]
[1]
  IC50: 3710 ± 1690 nM
[2]
  IC50: 2470 ± 470 nM

## CC(=O)OC(C)(C)/C=C/C(=O)[C@](C)(O)C1[C@H](OC(=O)c2ccc([N+](=O)[O-])cc2)C[C@@]2(C)C3CC=C4C(C[C@H](O)C(=O)C4(C)C)[C@]3(C)C(=O)C[C@]12C (stereo partly drawn) [Compound 3m, (2S,9R,13R,14S,16R)-17-((R,E)-6-Acetoxy-2-hydroxy-6-methyl-3-oxohept-4-en-2-yl)-2-hydroxy-4,4,9,13,14-pentamethyl-3,11-dioxo-2,3,4,7,8,9,10,11,12,13,14,15,16,17-tetradecahydro-1H-cyclopenta[a]phenanthren-16-yl 4-nitrobenzoate]
[1]
  IC50: 920 ± 440 nM
[2]
  IC50: 740 ± 150 nM

## CC(=O)OC(C)(C)/C=C/C(=O)[C@](C)(O)C1[C@H](OC(=O)c2cccc(F)c2)C[C@@]2(C)C3CC=C4C(C[C@H](O)C(=O)C4(C)C)[C@]3(C)C(=O)C[C@]12C (stereo partly drawn) [Compound 3n, (2S,9R,13R,14S,16R)-17-((R,E)-6-Acetoxy-2-hydroxy-6-methyl-3-oxohept-4-en-2-yl)-2-hydroxy-4,4,9,13,14-pentamethyl-3,11-dioxo-2,3,4,7,8,9,10,11,12,13,14,15,16,17-tetradecahydro-1H-cyclopenta[a]phenanthren-16-yl 3-fluorobenzoate]
[1]
  IC50: 4050 ± 1390 nM
[2]
  IC50: 2480 ± 520 nM

## CC(=O)OC(C)(C)/C=C/C(=O)[C@](C)(O)C1[C@H](OC(=O)C=Cc2ccccc2)C[C@@]2(C)C3CC=C4C(C[C@H](O)C(=O)C4(C)C)[C@]3(C)C(=O)C[C@]12C (stereo partly drawn) [Compound 3o, (2S,9R,13R,14S,16R)-17-((R,E)-6-Acetoxy-2-hydroxy-6-methyl-3-oxohept-4-en-2-yl)-2-hydroxy-4,4,9,13,14-pentamethyl-3,11-dioxo-2,3,4,7,8,9,10,11,12,13,14,15,16,17-tetradecahydro-1H-cyclopenta[a]phenanthren-16-yl cinnamate]
[1]
  IC50: 3310 ± 240 nM
[2]
  IC50: 9590 ± 2380 nM

Reference: publication PMC6321601 (Molecules, 2018)
